Measured values from PMC6792352, “Limited Chemical Structural Diversity Found to Modulate Thyroid Hormone Receptor in the Tox21 Chemical Library” (Environmental Health Perspectives, 2019).
Counter-ions that a name gives are not always drawn.

Assay: in vitro
Conditions: rat, gh3-tre-luc cells

CN[C@@H]1[C@@H](O)[C@@H](O[C@@H]2[C@@H](O)[C@H](O[C@H]3OC(CN)=CC[C@H]3N)[C@@H](N)C[C@H]2N)OC[C@]1(C)O [Sisomicin sulfate]
CC50 at 24 h (AC50 (uM) modified / 1000): > 20 µM

N[C@@H]1CN(c2c(F)cc3c(=O)c(C(=O)O)cn([C@@H]4C[C@@H]4F)c3c2Cl)CC12CC2 [Sitafloxacin]
CC50 at 24 h (AC50 (uM) modified / 1000): > 50 µM

C/C=C(/CC[C@@H](C)[C@H]1CC[C@H]2C3=CC[C@H]4[C@H](C)[C@@H](O)CC[C@]4(C)[C@H]3CC[C@]12C)C(C)C [Sitosterol alpha1]
CC50 at 24 h (AC50 (uM) modified / 1000): > 50 µM

CC(C)(C)C(=O)Oc1ccc(S(=O)(=O)Nc2ccccc2C(=O)NCC(=O)O)cc1 [Sivelestat sodium tetrahydrate]
CC50 at 24 h (AC50 (uM) modified / 1000): > 50 µM

CC(C)COC(=O)OCN1C(=O)CN(CCN2CC(=O)N(COC(=O)OCC(C)C)C(=O)C2)CC1=O [Sobuzoxane]
CC50 at 24 h (AC50 (uM) modified / 1000): > 50 µM

CC(C)COC(=O)CC(C(=O)OCC(C)C)S(=O)(=O)O (stereo not drawn) [Sodium 1,4-diisobutyl sulfosuccinate]
CC50 at 24 h (AC50 (uM) modified / 1000): > 90 µM

O=S(=O)(O)c1cccc2ccccc12 [Sodium 1-naphthalenesulfonate]
CC50 at 24 h (AC50 (uM) modified / 1000): > 90 µM

CCCCCCCCS(=O)(=O)O [Sodium 1-octanesulfonate]
CC50 at 24 h (AC50 (uM) modified / 1000): > 90 µM

O=S(=O)(O)CC(S)CS (stereo not drawn) [Sodium 2,3-dimercaptopropanesulfonate hydrate]
CC50 at 24 h (AC50 (uM) modified / 1000): > 50 µM

CNCCS(=O)(=O)O [Sodium 2-(methylamino)ethanesulfonate]
CC50 at 24 h (AC50 (uM) modified / 1000): > 90 µM

O=S(=O)(O)CCN1CCN(CCO)CC1 [Sodium 2-[4-(2-hydroxyethyl)piperazin-1-yl]ethanesulfonate]
CC50 at 24 h (AC50 (uM) modified / 1000): > 90 µM

O=Cc1ccccc1S(=O)(=O)O [Sodium 2-formylbenzenesulfonate]
CC50 at 24 h (AC50 (uM) modified / 1000): > 90 µM

O=S(=O)(O)CCO [Sodium 2-hydroxyethanesulfonate]
CC50 at 24 h (AC50 (uM) modified / 1000): > 90 µM

O=S(=O)(O)CCS [Sodium 2-mercaptoethanesulfonate]
CC50 at 24 h (AC50 (uM) modified / 1000): > 90 µM

Cc1ccccc1S(=O)(=O)O [Sodium 2-methylbenzenesulfonate]
CC50 at 24 h (AC50 (uM) modified / 1000): > 100 µM

C=C(C)CS(=O)(=O)O [Sodium 2-methylprop-2-ene-1-sulfonate]
CC50 at 24 h (AC50 (uM) modified / 1000): > 90 µM

O=S(=O)(O)c1ccc2ccccc2c1 [Sodium 2-naphthalenesulfonate]
CC50 at 24 h (AC50 (uM) modified / 1000): > 90 µM

Oc1ccccc1-c1ccccc1 [Sodium 2-phenylphenate tetrahydrate]
CC50 at 24 h (AC50 (uM) modified / 1000, Tox21_110001=Tox21_112097, viability, 1 nM T3 present, 24 h): > 50 µM

COC(=O)c1cc(C(=O)OC)cc(S(=O)(=O)O)c1 [Sodium 3,5-bis(methoxycarbonyl)benzenesulfonate]
CC50 at 24 h (AC50 (uM) modified / 1000): > 90 µM

C=CCOCC(O)CS(=O)(=O)O (stereo not drawn) [Sodium 3-(allyloxy)-2-hydroxypropanesulphonate]
CC50 at 24 h (AC50 (uM) modified / 1000): > 90 µM

O=S(=O)(O)CC(O)CCl (stereo not drawn) [Sodium 3-chloro-2-hydroxypropane-1-sulfonate]
CC50 at 24 h (AC50 (uM) modified / 1000): > 90 µM

O=[N+]([O-])c1cccc(S(=O)(=O)O)c1 [Sodium 3-nitrobenzenesulfonate]
CC50 at 24 h (AC50 (uM) modified / 1000): > 90 µM

Nc1ccc(C(=O)O)c(O)c1 [Sodium 4-aminosalicylate]
CC50 at 24 h (AC50 (uM) modified / 1000): > 50 µM

O=S(=O)(O)c1ccc(O)cc1 [Sodium 4-hydroxybenzenesulfonate]
CC50 at 24 h (AC50 (uM) modified / 1000): > 90 µM

O=C(O)CCCO [Sodium 4-hydroxybutanoate]
CC50 at 24 h (AC50 (uM) modified / 1000, Tox21_110001=Tox21_112871, viability, 1 nM T3 present, 24 h): > 100 µM

CCCCCCCCc1ccc(S(=O)(=O)O)cc1 [Sodium 4-octylbenzenesulfonate]
CC50 at 24 h (AC50 (uM) modified / 1000): > 90 µM

O=C(O)CCCc1ccccc1 [Sodium 4-phenylbutyrate]
CC50 at 24 h (AC50 (uM) modified / 1000): > 50 µM

C=Cc1ccc(S(=O)(=O)O)cc1 [Sodium 4-vinylbenzenesulfonate]
CC50 at 24 h (AC50 (uM) modified / 1000): 31.8 µM

O=C(O)C1=NN(c2ccc(S(=O)(=O)O)cc2)C(=O)C1 [Sodium 5-oxo-1-(4-sulfophenyl)-4,5-dihydro-1H-pyrazole-3-carboxylate]
CC50 at 24 h (AC50 (uM) modified / 1000): > 90 µM

O=C(O)c1cc(C(=O)O)cc(S(=O)(=O)O)c1 [Sodium 5-sulfoisophthalate]
CC50 at 24 h (AC50 (uM) modified / 1000): > 90 µM

O=C1c2ccccc2C(=O)c2cc(S(=O)(=O)O)ccc21 [Sodium 9,10-dioxo-9,10-dihydroanthracene-2-sulfonate]
CC50 at 24 h (AC50 (uM) modified / 1000): > 90 µM

On1ccccc1=S [Sodium (2-pyridylthio)-N-oxide]
CC50 at 24 h (AC50 (uM) modified / 1000): 1.83 µM

O=C(O)/C=C/C(O)c1ccc(Cl)cc1 (stereo not drawn) [Sodium (2E)-4-(4-chlorophenyl)-4-hydroxybut-2-enoate hydrate]
CC50 at 24 h (AC50 (uM) modified / 1000): > 50 µM

CC(C)C1=CC2=CC[C@@H]3[C@](C)(CCC[C@@]3(C)C(=O)O)[C@H]2CC1 [Sodium abietate]
CC50 at 24 h (AC50 (uM) modified / 1000): 74.3 µM

COc1cccc2c1cc([N+](=O)[O-])c1c(C(=O)O)cc3c(c12)OCO3 [Sodium aristolochate-I]
CC50 at 24 h (AC50 (uM) modified / 1000): 5.9 µM

CCC1(CC)C(=O)NC(=O)NC1=O [Sodium barbital]
CC50 at 24 h (AC50 (uM) modified / 1000): > 90 µM

CC(C)CP(=S)(S)CC(C)C [Sodium bis(2-methylpropyl)phosphinodithioate]
CC50 at 24 h (AC50 (uM) modified / 1000, Tox21_110001=Tox21_301761, viability, 1 nM T3 present, 24 h): > 90 µM

CCCCCCCCCCOS(=O)(=O)O [Sodium decyl sulfate]
CC50 at 24 h (AC50 (uM) modified / 1000): > 90 µM

CC(C)(C)c1ccc2c(S(=O)(=O)O)c(C(C)(C)C)ccc2c1 [Sodium dibunate]
CC50 at 24 h (AC50 (uM) modified / 1000): > 50 µM

CCCCN(CCCC)C(=S)S [Sodium dibutylcarbamodithioate]
CC50 at 24 h (AC50 (uM) modified / 1000): > 90 µM

O=c1[nH]c(=O)n(Cl)c(=O)n1Cl [Sodium dichloroisocyanurate]
CC50 at 24 h (AC50 (uM) modified / 1000, Tox21_110001=Tox21_112083, viability, 1 nM T3 present, 24 h): > 50 µM | CC50 at 24 h (AC50 (uM) modified / 1000, Tox21_110001=Tox21_201601, viability, 1 nM T3 present, 24 h): > 90 µM

CCOC(=O)CC(=O)C(=O)OCC [Sodium diethyl oxaloacetate]
CC50 at 24 h (AC50 (uM) modified / 1000): > 90 µM

CCCCCCCCCCCCOS(=O)(=O)O [Sodium dodecyl sulfate]
CC50 at 24 h (AC50 (uM) modified / 1000): > 90 µM

CCCCC(CC)COS(=O)(=O)O (stereo not drawn) [Sodium ethasulfate]
CC50 at 24 h (AC50 (uM) modified / 1000): > 90 µM

C=CS(=O)(=O)O [Sodium ethenesulfonate]
CC50 at 24 h (AC50 (uM) modified / 1000): > 50 µM

O=C(O)CF [Sodium fluoroacetate]
CC50 at 24 h (AC50 (uM) modified / 1000): > 90 µM

CCCCCCCCCCCCCCCCOS(=O)(=O)O [Sodium hexyldecyl sulfate]
CC50 at 24 h (AC50 (uM) modified / 1000): 50.6 µM

O=S(=O)(O)CO [Sodium hydroxymethanesulfonate]
CC50 at 24 h (AC50 (uM) modified / 1000): > 90 µM

CCCCCCCCCCCCOCCOS(=O)(=O)O [Sodium lauryl polyoxyethylene ether sulfate]
CC50 at 24 h (AC50 (uM) modified / 1000): 41 µM

Cc1ccc(S(=O)(=O)O)c(C)c1 [Sodium m-xylene-4-sulfonate]
CC50 at 24 h (AC50 (uM) modified / 1000): > 90 µM

COS(=O)(=O)O [Sodium methyl sulfate]
CC50 at 24 h (AC50 (uM) modified / 1000): > 90 µM

CCCCCCCCCCCCCCOS(=O)(=O)O [Sodium myristyl sulfate]
CC50 at 24 h (AC50 (uM) modified / 1000): 32 µM

CCCCCCCCOS(=O)(=O)O [Sodium octyl sulfate]
CC50 at 24 h (AC50 (uM) modified / 1000): > 90 µM

C[C@]12CC[C@H](OS(=O)(=O)O)CC1=CC[C@@H]1[C@@H]2CC[C@]2(C)C(=O)CC[C@@H]12 [Sodium prasterone sulfate dihydrate]
CC50 at 24 h (AC50 (uM) modified / 1000, Tox21_110001=Tox21_111223, viability, 1 nM T3 present, 24 h): > 50 µM

O=C1NS(=O)(=O)c2ccccc21 [Sodium saccharin]
CC50 at 24 h (AC50 (uM) modified / 1000): > 90 µM

O=C(O)c1ccccc1O [Sodium salicylate]
CC50 at 24 h (AC50 (uM) modified / 1000): > 90 µM

Nc1ccc(S(=O)(=O)O)cc1 [Sodium sulfanilate]
CC50 at 24 h (AC50 (uM) modified / 1000): > 90 µM

CCCCCCCCCCCCCOS(=O)(=O)O [Sodium tridecyl sulfate]
CC50 at 24 h (AC50 (uM) modified / 1000): > 90 µM

CCCC(=O)Nc1c(I)cc(I)c(CC(CC)C(=O)O)c1I (stereo not drawn) [Sodium tyropanoate]
CC50 at 24 h (AC50 (uM) modified / 1000): 26.5 µM

O=c1[nH]c(=O)c2[nH]c(=O)[nH]c2[nH]1 [Sodium urate]
CC50 at 24 h (AC50 (uM) modified / 1000): > 50 µM

Cc1ccc(S(=O)(=O)O)cc1C [Sodium xylenesulfonate]
CC50 at 24 h (AC50 (uM) modified / 1000): > 90 µM

Cc1cc(CC(=O)O)n(C)c1C(=O)c1ccc(Cl)cc1 [Sodium zomepirac]
CC50 at 24 h (AC50 (uM) modified / 1000): > 90 µM
